Test results as given in ChEMBL document CHEMBL1201862, “PubChem BioAssay data set” (2004).
The source made the active and inactive calls.

Key:
Vero [1] = experiment: cytotoxicity of synthesized analogs in Vero 76, SAR follow-up, cytotoxicity control for West Nile virus antiviral project, Vero 76 cells (AID 2414); type: functional; conditions: Chlorocebus sabaeus
Vero [2] = experiment: cytotoxicity of synthesized analogs in Vero cells, SAR follow-up, cytotoxicity control for West Nile virus antiviral project, cell-based, set II (AID 2402); type: functional; conditions: Chlorocebus sabaeus
[3] = system: Streptococcus sp. 'group A'; experiment: growth inhibition of control SK(-) GAS strain, dose response, counter-screen for streptokinase expression inhibitor project, luminescence, kanamycin, BacTiterGlo, confirmation (AID 1900); type: functional, organism-based
Galanin receptor type 2 = Galanin receptor type 2 (Homo sapiens, UniProt O43603); experiment: Dose Response cell-based high-throughput screening assay to identify agonists of galanin receptor 2 (GALR2). [Related pubchem assays: 864 ]; type: functional
Chain of Galanin receptor type 2 (O43603 whole entry): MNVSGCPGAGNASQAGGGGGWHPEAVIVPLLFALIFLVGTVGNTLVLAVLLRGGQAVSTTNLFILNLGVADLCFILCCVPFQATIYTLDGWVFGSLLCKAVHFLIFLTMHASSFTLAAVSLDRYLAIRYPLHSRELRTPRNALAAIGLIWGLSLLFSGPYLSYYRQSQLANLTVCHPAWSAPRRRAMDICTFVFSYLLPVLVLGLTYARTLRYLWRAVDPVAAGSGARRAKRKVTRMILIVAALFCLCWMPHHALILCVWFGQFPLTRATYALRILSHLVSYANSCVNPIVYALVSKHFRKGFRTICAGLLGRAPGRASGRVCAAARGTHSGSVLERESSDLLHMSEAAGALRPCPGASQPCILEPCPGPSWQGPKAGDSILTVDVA

Streptococcus = experiment: Group A Streptococcus viability loss, dose response, counter-screen for streptokinase expression inhibitor project, luminescence, BacTiterGlo (AID 1915); type: functional, organism-based;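 note: potency for reduction of bacterial viability or growth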
Nonstructural protein 1 = Nonstructural protein 1 (Influenza A virus, UniProt Q194T2); type: functional, Influenza A virus (A/California/07/2009(H1N1))
Chain of Nonstructural protein 1 (Q194T2 whole entry): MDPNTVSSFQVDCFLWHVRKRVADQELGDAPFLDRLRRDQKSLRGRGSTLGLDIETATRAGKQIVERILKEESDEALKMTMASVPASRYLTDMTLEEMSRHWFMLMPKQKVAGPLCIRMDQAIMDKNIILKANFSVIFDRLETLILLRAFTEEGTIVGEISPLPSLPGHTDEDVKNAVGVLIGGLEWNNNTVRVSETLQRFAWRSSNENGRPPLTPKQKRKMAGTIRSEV

INS1 = experiment: beta cell apoptosis inhibitors, cytokine rescue, dose response, luminescence, retest (AID 449756); type: functional, cell-based; conditions: Rattus norvegicus;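 note: cell death triggered by IL-1 beta plus TNF-alpha plus IFN-gamma mixture; protective hits raise ATP signal compared with cytokine alone wells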
[4] = HepG2 cell cytotoxicity, dose response, cytotoxicity control, ATP luminescence, cherry-pick, set 6 (AID 1053125); type: functional, cell-based
[5] = human group III sPLA2 inhibitors, dose response, biochemical, QFRET, IC50 (AID 743457);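 note: green fluorescence rise as the enzyme cleaves BODIPY PC-A2 in liposomes; potency for inhibition of the enzyme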
cells [6] = conditions: A549
cells [7] = conditions: HEK293
[8] = Luminescence Cell-Based Dose Confirmation HTS to Identify Activators of 5'UTR Stem-Loop Driven Alpha-Synuclein mRNA Translation in H4 Neuroglioblastoma Cells. [Related pubchem assays: 1829 (Project Summary), 1814 (Primary HTS)]; type: functional
[9] = Luminescence Cell-Based Dose Response HTS to Identify Activators of Luciferase Translation or Activity in H4 […] Cells. [Related pubchem assays: 1829 (Project Summary), 1814 (Primary HTS)]; type: functional
H4 = experiment: Luminescence Cell-Based Dose Response HTS to Identify Activators of 5'UTR Stem-Loop Driven Prion Protein mRNA Translation in H4 Neuroglioblastoma Cells. [Related pubchem assays: 1829 (Project Summary), 1814 (Primary HTS)]; type: functional; conditions: Homo sapiens
[10] = target: Voltage-gated inwardly rectifying potassium channel KCNH2 (Homo sapiens, UniProt Q12809); experiment: hERG protection from proarrhythmic block, potency, dose response, cell-based, thallium flux (AID 2121); type: ADME
Chain of Voltage-gated inwardly rectifying potassium channel KCNH2 (Q12809 whole entry): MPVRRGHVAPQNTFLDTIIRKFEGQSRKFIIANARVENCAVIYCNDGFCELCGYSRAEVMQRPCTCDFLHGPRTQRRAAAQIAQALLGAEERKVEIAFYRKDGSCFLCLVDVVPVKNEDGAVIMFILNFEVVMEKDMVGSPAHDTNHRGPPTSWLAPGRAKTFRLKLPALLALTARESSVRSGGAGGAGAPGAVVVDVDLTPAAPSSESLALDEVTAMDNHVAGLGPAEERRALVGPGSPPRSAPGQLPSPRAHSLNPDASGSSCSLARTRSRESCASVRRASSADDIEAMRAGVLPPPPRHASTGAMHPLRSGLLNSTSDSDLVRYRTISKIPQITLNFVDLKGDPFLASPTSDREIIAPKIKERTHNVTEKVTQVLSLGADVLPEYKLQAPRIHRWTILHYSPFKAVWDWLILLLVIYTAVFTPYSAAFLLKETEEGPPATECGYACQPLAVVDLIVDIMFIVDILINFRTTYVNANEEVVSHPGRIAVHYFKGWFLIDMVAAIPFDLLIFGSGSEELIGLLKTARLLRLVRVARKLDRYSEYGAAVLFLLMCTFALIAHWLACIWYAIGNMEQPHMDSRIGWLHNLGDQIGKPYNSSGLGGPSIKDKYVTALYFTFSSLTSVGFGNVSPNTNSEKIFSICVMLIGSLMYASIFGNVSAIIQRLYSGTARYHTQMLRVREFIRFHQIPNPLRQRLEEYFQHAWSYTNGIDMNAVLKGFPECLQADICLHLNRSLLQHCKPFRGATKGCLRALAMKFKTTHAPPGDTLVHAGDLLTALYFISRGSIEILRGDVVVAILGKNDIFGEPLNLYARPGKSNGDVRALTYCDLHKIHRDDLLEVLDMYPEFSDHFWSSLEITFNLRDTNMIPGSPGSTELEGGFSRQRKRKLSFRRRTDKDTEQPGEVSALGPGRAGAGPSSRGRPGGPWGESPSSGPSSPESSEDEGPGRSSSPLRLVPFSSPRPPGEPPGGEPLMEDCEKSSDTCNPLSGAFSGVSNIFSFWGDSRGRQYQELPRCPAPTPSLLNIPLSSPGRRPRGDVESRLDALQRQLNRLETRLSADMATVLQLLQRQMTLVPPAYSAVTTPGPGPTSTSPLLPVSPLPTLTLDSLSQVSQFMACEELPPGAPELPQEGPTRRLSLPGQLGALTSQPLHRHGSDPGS

[11] = target: Voltage-gated N-type calcium channel alpha-1B subunit/Amyloid beta A4 precursor protein-binding family A member 1 (Homo sapiens, UniProt Q00975+Q02410); type: protein assay
Genome polyprotein = Genome polyprotein (Hepatitis C virus, UniProt Q2Q167); experiment: HCV core protein dimerization inhibitors, dose response, biochemical, TR-FRET (AID 2159); design: species or system Hepacivirus hominis;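 note: blocks dimerization of HCV core protein measured by TR-FRET between tagged core106 pairs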
Chain of Genome polyprotein (Q2Q167 whole entry): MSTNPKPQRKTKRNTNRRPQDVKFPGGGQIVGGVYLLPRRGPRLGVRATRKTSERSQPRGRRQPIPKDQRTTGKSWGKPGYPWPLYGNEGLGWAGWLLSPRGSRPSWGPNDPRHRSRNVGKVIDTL

[12] = target: T1, Tyrosine-protein phosphatase non-receptor type 7 (Homo sapiens, UniProt P35236); experiment: inhibitors of human HePTP phosphatase, […], biochemical, absorbance, leukemia target (AID 521); type: functional
T1 sequence (P35236 whole entry): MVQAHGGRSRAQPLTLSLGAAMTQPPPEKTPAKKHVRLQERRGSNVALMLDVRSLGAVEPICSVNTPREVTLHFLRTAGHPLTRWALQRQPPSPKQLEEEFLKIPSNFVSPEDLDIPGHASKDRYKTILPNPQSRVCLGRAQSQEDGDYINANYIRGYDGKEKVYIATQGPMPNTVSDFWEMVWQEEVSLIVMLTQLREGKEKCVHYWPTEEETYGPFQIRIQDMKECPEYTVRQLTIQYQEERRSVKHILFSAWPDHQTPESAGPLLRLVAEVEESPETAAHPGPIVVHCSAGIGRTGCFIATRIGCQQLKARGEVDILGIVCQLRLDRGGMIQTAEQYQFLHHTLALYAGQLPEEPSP

[13] = target: Diphosphomevalonate decarboxylase (Streptococcus pneumoniae serotype 2 (strain D39 / NCTC 7466), UniProt Q9FD53); experiment: S. pneumoniae DPM-DC inhibition retest, confirmation, biochemical, cuvette format, coupled NADH fluorescence (AID 1028); type: functional
Chain of Diphosphomevalonate decarboxylase (Q9FD53 whole entry): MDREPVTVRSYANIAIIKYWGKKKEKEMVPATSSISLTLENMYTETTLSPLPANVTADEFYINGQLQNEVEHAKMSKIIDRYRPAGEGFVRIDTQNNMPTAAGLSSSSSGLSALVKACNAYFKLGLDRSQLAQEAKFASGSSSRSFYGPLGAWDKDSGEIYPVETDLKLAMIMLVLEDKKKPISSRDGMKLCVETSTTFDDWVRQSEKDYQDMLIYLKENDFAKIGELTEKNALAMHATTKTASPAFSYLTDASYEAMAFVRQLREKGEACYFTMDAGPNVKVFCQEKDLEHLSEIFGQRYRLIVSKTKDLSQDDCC

[14] = target: Ubiquitin carboxyl-terminal hydrolase BAP1 (Homo sapiens, UniProt Q92560); experiment: BAP1 deubiquitinase inhibitors, dose response, biochemical (AID 714); type: functional
Chain of Ubiquitin carboxyl-terminal hydrolase BAP1 (Q92560 whole entry): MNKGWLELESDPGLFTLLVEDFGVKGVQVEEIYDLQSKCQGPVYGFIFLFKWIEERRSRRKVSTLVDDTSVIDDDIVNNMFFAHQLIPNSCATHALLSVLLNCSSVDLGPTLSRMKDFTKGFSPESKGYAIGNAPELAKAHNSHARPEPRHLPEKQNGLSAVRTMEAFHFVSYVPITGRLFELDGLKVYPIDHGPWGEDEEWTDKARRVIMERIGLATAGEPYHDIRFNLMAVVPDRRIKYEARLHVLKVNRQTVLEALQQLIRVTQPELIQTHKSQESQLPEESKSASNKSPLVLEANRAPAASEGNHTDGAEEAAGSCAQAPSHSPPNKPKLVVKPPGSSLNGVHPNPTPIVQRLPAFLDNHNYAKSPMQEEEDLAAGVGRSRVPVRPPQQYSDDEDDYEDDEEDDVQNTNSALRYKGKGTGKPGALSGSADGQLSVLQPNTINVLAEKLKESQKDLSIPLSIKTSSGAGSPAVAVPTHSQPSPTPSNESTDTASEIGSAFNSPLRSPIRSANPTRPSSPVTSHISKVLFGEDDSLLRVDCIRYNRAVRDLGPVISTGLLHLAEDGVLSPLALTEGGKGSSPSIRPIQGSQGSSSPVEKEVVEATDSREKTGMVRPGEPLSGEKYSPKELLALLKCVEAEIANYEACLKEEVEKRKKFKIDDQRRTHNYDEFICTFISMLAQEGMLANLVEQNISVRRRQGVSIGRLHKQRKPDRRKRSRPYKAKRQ

Bcl-2-related protein A1 [15] = target: T2, Bcl-2-related protein A1 (Mus musculus, UniProt Q07440); experiment: Bfl-1 inhibitors, primary screen, biochemical, fluorescence polarization, FITC-Bid, mouse (AID 432)
T2 sequence (Q07440 whole entry): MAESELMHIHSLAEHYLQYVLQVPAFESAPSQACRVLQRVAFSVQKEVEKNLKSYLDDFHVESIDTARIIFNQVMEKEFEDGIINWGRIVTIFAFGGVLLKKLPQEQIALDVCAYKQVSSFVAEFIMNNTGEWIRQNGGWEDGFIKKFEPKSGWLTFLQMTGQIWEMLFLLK

Bcl-2-related protein A1 [16] = target: T2, Bcl-2-related protein A1; experiment: Bfl-1 inhibitors blocking BH3 peptide binding, confirmation, biochemical, TR-FRET, mouse Bfl-1 (AID 621);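 note: TR-FRET binding of GST-Bfl-1 to FITC-labelled Bid peptide via terbium antibody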
NADPH oxidase 1 = target: T3, NADPH oxidase 1 (Homo sapiens, UniProt Q9Y5S8); experiment: Late-stage luminescence-based cell-based dose response assay to identify inhibitors of NADPH oxidase 1 (NOX1): Purchased analogs 2.; type: functional
T3 sequence (Q9Y5S8 whole entry): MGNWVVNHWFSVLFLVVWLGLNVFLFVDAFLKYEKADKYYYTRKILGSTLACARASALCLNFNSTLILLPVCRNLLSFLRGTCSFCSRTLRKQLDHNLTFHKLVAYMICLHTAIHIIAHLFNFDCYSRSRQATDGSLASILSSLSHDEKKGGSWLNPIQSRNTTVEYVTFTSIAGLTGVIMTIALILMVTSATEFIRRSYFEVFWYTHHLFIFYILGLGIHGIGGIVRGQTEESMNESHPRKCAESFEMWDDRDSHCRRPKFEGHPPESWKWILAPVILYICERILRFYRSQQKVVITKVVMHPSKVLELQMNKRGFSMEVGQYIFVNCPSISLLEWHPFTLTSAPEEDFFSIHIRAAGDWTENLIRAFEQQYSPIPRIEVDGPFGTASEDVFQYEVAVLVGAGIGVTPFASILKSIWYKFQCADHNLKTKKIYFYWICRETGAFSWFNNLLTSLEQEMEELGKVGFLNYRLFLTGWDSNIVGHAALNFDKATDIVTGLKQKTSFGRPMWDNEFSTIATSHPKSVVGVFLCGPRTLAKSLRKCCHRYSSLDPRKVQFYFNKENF

[17] = Luminescent dose response cell-based high throughput screening assay for inhibitors of the Janus kinase 2 mutant JAK2V617F. [Related pubchem assays: 1446 (Primary screen.), 1521 (Confirmation assay.), 1486 (Counter screen.)]; type: functional
[18] = target: 5-hydroxytryptamine receptor 1A (Homo sapiens, UniProt P08908); type: functional
Chain of 5-hydroxytryptamine receptor 1A (P08908 whole entry): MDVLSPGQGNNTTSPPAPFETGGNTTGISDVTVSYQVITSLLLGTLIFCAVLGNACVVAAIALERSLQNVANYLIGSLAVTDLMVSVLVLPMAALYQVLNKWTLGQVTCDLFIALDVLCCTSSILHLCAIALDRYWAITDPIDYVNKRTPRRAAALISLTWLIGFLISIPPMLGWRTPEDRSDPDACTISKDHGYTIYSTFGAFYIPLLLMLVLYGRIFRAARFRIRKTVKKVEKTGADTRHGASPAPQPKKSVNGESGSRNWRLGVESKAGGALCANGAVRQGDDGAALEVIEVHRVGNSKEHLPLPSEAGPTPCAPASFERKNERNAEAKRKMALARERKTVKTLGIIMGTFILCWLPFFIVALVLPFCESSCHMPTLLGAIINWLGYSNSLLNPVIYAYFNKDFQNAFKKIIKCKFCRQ

Estrogen receptor beta [19] = target: T4, Estrogen receptor beta (Homo sapiens, UniProt Q92731);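 note: recombinant ER-beta bound to coactivator SRC1 peptide in presence of estradiol agonist; inhibitors block coactivator peptide binding and lower the FRET signal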
T4 sequence (Q92731 whole entry): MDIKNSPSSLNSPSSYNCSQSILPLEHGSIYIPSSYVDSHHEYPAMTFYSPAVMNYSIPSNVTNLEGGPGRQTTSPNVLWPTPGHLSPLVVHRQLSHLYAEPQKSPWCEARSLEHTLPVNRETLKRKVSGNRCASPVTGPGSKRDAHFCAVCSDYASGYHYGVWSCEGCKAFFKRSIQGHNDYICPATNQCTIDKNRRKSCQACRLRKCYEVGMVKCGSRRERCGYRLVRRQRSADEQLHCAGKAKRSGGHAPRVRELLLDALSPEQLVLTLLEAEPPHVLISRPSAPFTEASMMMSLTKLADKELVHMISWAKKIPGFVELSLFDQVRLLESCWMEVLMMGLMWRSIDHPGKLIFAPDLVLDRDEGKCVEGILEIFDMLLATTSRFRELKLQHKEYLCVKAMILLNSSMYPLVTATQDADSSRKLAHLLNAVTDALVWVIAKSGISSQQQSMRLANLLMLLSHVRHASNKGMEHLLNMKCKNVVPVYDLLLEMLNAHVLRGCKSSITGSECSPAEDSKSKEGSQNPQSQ

Estrogen receptor beta [20] = target: T4, Estrogen receptor beta; experiment: ERβ–SRC-3 coactivator interaction inhibitors, confirmation, orthogonal assay, biochemical, ELISA, streptavidin-HRP readout (AID 1060)
[21] = target: T5, Carboxy-terminal domain RNA polymerase II polypeptide A small phosphatase 1 (Homo sapiens, UniProt Q9GZU7); experiment: inhibitors of CTDSP1, concentration-response testing, biochemical assay, absorbance-based, actives from ultra-high-throughput screening (AID 540297); type: functional
T5 sequence (Q9GZU7 whole entry): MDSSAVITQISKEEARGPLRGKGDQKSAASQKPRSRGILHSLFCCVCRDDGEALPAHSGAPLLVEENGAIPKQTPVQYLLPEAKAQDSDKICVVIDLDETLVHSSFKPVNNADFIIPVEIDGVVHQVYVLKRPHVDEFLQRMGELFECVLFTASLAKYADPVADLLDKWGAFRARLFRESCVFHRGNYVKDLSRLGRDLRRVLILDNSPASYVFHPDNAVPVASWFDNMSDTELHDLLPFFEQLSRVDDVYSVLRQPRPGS

[22] = target: T6, Corticotropin-releasing factor receptor 2/Corticotropin-releasing factor-binding protein (Homo sapiens, UniProt P24387+Q13324); experiment: activators of CRF receptor 2 with binding protein – uHTS hits, confirmation (AID 602473); type: functional; conditions: read-out: EC50_Mean
T6 sequence (Q13324 whole entry): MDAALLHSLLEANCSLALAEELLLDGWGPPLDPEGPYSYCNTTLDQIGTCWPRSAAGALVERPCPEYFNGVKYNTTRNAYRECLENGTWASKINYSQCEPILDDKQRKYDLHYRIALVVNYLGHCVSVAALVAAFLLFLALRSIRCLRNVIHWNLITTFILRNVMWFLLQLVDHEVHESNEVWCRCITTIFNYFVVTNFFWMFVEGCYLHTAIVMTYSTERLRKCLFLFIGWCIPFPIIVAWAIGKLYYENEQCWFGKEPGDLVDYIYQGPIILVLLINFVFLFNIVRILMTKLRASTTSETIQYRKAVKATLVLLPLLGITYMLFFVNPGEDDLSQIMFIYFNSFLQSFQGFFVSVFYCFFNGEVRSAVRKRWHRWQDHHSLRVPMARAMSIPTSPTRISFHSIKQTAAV
T6 sequence (P24387 whole entry): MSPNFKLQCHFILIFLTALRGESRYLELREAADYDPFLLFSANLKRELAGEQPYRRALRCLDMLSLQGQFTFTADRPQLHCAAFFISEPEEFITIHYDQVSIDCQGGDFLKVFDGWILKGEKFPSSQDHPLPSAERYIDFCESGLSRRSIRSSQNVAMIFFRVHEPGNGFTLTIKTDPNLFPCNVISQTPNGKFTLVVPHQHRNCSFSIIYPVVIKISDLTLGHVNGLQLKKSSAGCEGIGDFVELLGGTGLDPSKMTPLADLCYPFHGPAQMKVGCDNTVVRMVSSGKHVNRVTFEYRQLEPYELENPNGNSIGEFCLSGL

[23] = target: T7, RNA-binding protein pos-1 (Caenorhabditis elegans, UniProt G5EF15); experiment: inhibitors of POS-1/mex-3 RNA binding, dose response, biochemical, fluorescence polarization (AID 1964);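 note: purified POS-1 fused to maltose binding protein made in E. coli; potency of compounds blocking POS-1 binding to fluorescent RNA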
T7 sequence (G5EF15 whole entry): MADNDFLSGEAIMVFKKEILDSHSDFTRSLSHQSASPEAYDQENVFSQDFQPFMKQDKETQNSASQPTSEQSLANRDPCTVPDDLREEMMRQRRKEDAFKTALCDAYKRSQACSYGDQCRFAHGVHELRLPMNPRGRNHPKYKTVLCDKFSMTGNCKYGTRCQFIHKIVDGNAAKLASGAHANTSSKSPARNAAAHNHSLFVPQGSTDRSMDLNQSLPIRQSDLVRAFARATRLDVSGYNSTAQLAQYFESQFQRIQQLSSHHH

[24] = target: T8, Zinc finger protein mex-5 (Caenorhabditis elegans, UniProt Q9XUB2); experiment: MEX-5/TCR-2 RNA interaction inhibitors, dose response, biochemical, C. elegans, fluorescence polarization (AID 1960)
T8 sequence (Q9XUB2 whole entry): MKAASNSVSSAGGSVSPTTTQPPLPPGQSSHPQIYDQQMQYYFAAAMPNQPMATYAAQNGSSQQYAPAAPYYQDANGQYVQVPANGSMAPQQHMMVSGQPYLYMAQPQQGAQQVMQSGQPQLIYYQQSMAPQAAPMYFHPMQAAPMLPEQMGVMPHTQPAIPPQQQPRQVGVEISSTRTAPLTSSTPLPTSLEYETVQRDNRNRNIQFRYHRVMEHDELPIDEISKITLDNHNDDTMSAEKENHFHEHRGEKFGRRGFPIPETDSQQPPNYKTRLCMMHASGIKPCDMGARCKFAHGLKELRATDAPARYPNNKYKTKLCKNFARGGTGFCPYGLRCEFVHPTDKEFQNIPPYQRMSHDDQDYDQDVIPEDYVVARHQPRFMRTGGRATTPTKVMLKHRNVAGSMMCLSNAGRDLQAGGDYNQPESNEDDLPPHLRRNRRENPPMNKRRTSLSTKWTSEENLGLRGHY

[25] = Escherichia coli growth inhibition, dose response, counter-screen for MEX-5/POS-1 RNA-binding inhibitor project, luminescence, NEB5alpha (AID 1959); type: functional

OC1c2cc(Br)ccc2N=C2CCCCCN21 (configuration not stated)
CC50 (Vero [1]): 61 µM (active)
CC50 (Vero [2]): 37.6 µM (active)

Cc1cccc2sc(NNC(=O)c3ccc(S(=O)(=O)N4CCCC(C)C4)cc3)nc12 (configuration not stated)
EC50 [3]: 0.493 µM (active)
EC50 (Galanin receptor type 2): > 55.7 µM (not active)
EC50 (Streptococcus): 8.56 µM (active)
IC50 (Nonstructural protein 1): > 100 µM (active)
AC50 (INS1): 1.12 µM (active)
AC50 [4]: 4.56 µM (active)
IC50 [5]: 21.3 µM (inactive)
AC50 (cells [6]): 8.96 µM (active)
AC50 (cells [7]): 4.7 µM (active)

CCOC(=O)c1sc(NC(=S)NC(=O)c2ccccc2)nc1C
EC50 [8]: 17.6 µM (active)
EC50 [9]: 7.98 µM (active)
EC50 (H4): 25 µM (active)
EC50 [10]: 3.68 µM (active)

Nc1cccc(-c2nc3cc(S(=O)(=O)c4ccc5oc(-c6cccc(N)c6)nc5c4)ccc3o2)c1
IC50 [11]: 13.2 µM (active)

Sc1nc(Cc2ccccc2)nc2ccccc12
IC50 (Genome polyprotein): > 49.8 µM (not active)

O=C(Nc1nncs1)c1c(F)c(F)c(F)c(F)c1F
IC50 [12]: > 100 µM (not active)

O=C(NCc1ccccc1)c1ccc(-n2sc3ccccc3c2=O)cc1
IC50 [13]: 9.98 µM (active)

COc1ccc2nc(NC(=O)CCc3nc(-c4ccccc4F)no3)sc2c1
IC50 [14]: 36.6 µM (not active)

CN(C)c1ccc(-c2nn3c(-c4ccc(Cl)cc4Cl)nnc3s2)cc1
IC50 (Bcl-2-related protein A1 [15]): > 100 µM (not active)
IC50 (Bcl-2-related protein A1 [16]): > 100 µM (not active)

O=C(Nc1ccc(Oc2ccc(Cl)cc2)cc1)Nc1ccc([N+](=O)[O-])cc1
IC50 (NADPH oxidase 1): > 17 µM (not active)

Oc1ccccc1OCCOc1ccccc1OCCOc1ccccc1O
IC50 [17]: 1.48 µM (active)

c1ccc(N2CCN(Cc3cn4cccnc4n3)CC2)cc1
EC50 [18]: > 50 µM (not active)

CCCc1nc2sc3ccccc3c(=O)c2c(=O)n1Cc1ccco1
IC50 (Estrogen receptor beta [19]): 11.6 µM (active)
IC50 (Estrogen receptor beta [20]): 0.709 µM (not active)
IC50 [21]: 9.92 µM (active)
EC50 [22]: 13.8 µM (active)

O=c1c2ccccc2nc(N/N=C/c2ccc(O)cc2)n1O
EC50 [23]: > 300 µM (not active)
EC50 [24]: > 300 µM (inconclusive)
EC50 [25]: 14.3 µM (active)
